From patent publication US12139474B2, “LPA receptor antagonists and uses thereof” (Gilead Sciences, Inc., priority 2020, dated 2024)

Biological target: T1, human LPAR1 (Homo sapiens, UniProt Q92633)
T1 construct: host or cells: CHO-K1
Test: LPAR1 intracellular calcium mobilization assay (antagonist mode)
Format: cell-based
Details: CHO-K1 EDG2 cells expressing human LPAR1; 60 min pre-incubation with compound, then LPA 18:2 at EC80 (100 nM); FLIPR calcium signal
Experimental: In vitro LPAR1 activity was measured in an intracellular calcium mobilization assay.
CHO-K1 EDG2 cells (DiscoverX cat #93-0644C2) expressing human LPAR1 (NM_001401.3) were seeded in a total volume of 25 μL of Dulbecco's Modification of Eagle's Medium (DMEM) with 10% Fetal Bovine Serum, 1× PenStrepGlutamine, 300 ug/ml Hygromycin, and 800 ug/ml G418 into 384-well tissue culture plate (Grenier #781091) at 15,000 cells/well and incubated at 37° C. overnight. Prior to testing, 25 μL Calcium Loading Dye Component A (FLIPR Calcium 6 Assay Kit Molecular Device #R8190) and 2.5 mM Probenecid (Invitrogen #P36400, prepared fresh) in Hank's Balanced Salt Solution (Corning #21-023-CV), 20 mM HEPES (Corning #25-060-CI), 0.1% Bovine Serum Albumin (Sigma-Aldrich #A7906-500G) was add to the cells for 60 minutes at 37° C.
Agonist dose curves of LPA 18:2 (Avanti Polar Lipids cat #857138, 0.5 nM to 10 μM) were recorded to determine the LPA 18:2 EC80 for subsequent antagonist assays. For agonist dose curves, cells were removed from the incubator 2 hours after dye loading and transferred to the FLIPR Tetra instrument (Molecular Devices, San Jose, CA). Calcium mobilization was monitored for 5 min and 10 μL 6× LPA in HBSS/20 mM Hepes/0.1% bovine serum albumin (BSA) was added to the cells 5 seconds into the assay.
To determine the LPAR1 antagonist activity of test compounds, cells were pre-incubated with test compound at a dose range of 0.5 nM to 10 μM, followed by LPA at EC80 concentration (100 nM). After dye loading, cells were removed from the incubator and 0.3 μL of 200× antagonist was added. Cells were incubated for 60 minutes at 37° C. Antagonist activity was measured on a FLIPR Tetra. Calcium mobilization was monitored for 3.5 minutes and 10 μL 6× EC80 LPA in HBSS, 20 mM HEPES, and 0.1% BSA was added to the cells 5 seconds into the assay. Signal amplitude (Maximum minus minimum) values were plotted against log10 of antagonist concentration using Dose Response Tool (Gilead Sciences Inc.) to determine EC50.
To assess the antagonistic potential of exemplified compounds EC50 values were determined for Compounds 1 to 32 in the LPAR1 calcium mobilization assay. The compound numbers correspond to the compound numbers in Examples 1 to 33.

T1 sequence (Q92633 whole entry): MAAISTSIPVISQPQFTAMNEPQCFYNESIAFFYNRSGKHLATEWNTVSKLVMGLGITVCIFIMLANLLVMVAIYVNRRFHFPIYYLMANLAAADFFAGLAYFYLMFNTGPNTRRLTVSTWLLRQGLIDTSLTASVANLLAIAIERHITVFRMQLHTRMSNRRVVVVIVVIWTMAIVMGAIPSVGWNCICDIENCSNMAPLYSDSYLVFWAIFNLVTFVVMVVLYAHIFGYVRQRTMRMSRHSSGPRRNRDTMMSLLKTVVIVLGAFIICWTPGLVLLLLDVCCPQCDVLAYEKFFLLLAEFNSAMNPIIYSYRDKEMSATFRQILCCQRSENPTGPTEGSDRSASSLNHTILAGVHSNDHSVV

Row | EC50 | SMILES
1 | < 5 nM | CC1Oc2nc(-c3nnn(C)c3NC(=O)O[C@H](C)c3cc(F)cnc3Cl)ccc2NC1=O (stereo partly drawn) [Compound 31, (R)-1-(2-chloro-5-fluoropyridin-3-yl)ethyl (1-methyl-4-(3-methyl-2-oxo-2,3-dihydro-1H-pyrido[2,3-b][1,4]oxazin-6-yl)-1H-1,2,3-triazol-5-yl)carbamate]
2 | 135 nM | C[C@@H](OC(=O)Nc1c(-c2ccc3c(n2)OC(c2ccccc2)C(=O)N3)nnn1C)c1cccnc1Cl (stereo partly drawn) [Compound 27, (R)-1-(2-chloropyridin-3-yl)ethyl (1-methyl-4-(2-oxo-3-phenyl-2,3-dihydro-1H-pyrido[2,3-b][1,4]oxazin-6-yl)-1H-1,2,3-triazol-5-yl)carbamate]
3 | < 5 nM | C[C@@H](OC(=O)Nc1c(-c2ccc3c(n2)OC(C(F)(F)F)C(=O)N3)nnn1C)c1cc(F)cnc1Cl (stereo partly drawn) [Compound 30, (R)-1-(2-chloro-5-fluoropyridin-3-yl)ethyl (1-methyl-4-(2-oxo-3-(trifluoromethyl)-2,3-dihydro-1H-pyrido[2,3-b][1,4]oxazin-6-yl)-1H-1,2,3-triazol-5-yl)carbamate]
4 | 3780 nM | CC1Oc2nc(-c3nnn(C)c3NC(=O)O[C@H](C)c3cc(F)cnc3F)ccc2NC1=O (stereo partly drawn) [Compound 32, (R)-1-(2,5-difluoropyridin-3-yl)ethyl (1-methyl-4-(3-methyl-2-oxo-2,3-dihydro-1H-pyrido[2,3-b][1,4]oxazin-6-yl)-1H-1,2,3-triazol-5-yl)carbamate]
